Test results as given in patent publication EP0370382A2, “Urea dipeptide derivatives with a renin-inhibiting activity, process to produce them, compositions containing them and their use” (HOECHST AKTIENGESELLSCHAFT, priority 1988, dated 1990).

Target: T1, Renin (Homo sapiens, UniProt P00797)
T1 construct: Das Blut wird von freiwilligen Probanden gewonnen; from tissue; host or cells: human blood plasma (EDTA) from volunteers
T1 sequence (P00797 67-406): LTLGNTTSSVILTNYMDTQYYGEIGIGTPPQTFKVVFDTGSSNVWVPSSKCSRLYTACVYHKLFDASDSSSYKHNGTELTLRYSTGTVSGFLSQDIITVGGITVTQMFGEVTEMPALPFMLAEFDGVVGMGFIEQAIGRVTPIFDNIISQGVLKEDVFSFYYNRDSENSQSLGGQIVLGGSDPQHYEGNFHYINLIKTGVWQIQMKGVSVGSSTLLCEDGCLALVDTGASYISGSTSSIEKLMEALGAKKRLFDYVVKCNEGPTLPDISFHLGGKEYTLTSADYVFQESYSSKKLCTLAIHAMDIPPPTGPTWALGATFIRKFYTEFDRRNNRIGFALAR
Test: Renin inhibition in human plasma (angiotensin I release, radioimmunoassay)
Assay type: biochemical
Settings: 37°C, 1 h incubation, phosphate buffer pH 7.4, max. 1 % DMSO, read from % residual plasma renin activity vs. concentration, read-out: IC₅₀
Experimental: Die Wirksamkeit von Renin-Hemmern kann durch in-vitro-Tests überprüft werden. Hierbei wird die Verminderung der Bildung von Angiotensin I in verschiedenen Systemen (Humanplasma, gereinigtes Humanrenin) gemessen.
Z.B. Humanplasma, welches sowohl Renin als auch Angiotensinogen enthält, wird bei 37°C mit der zu testenden Verbindung inkubiert. Dabei wird aus Angiotensinogen unter der Einwirkung von Renin Angiotensin I freigesetzt, das anschließend mit einem handelsüblichen Radioimmunoassay gemessen werden kann. Diese Angiotensin-Freisetzung wird durch Renin-Inhibitoren gehemmt.
Das Blut wird von freiwilligen Probanden gewonnen (ca. 0,5 l pro Person; Bluko-Entnahmegerät der Fa. ASID Bonz und Sohn, Unterschleißheim) und in teilweise evakuierten Flaschen unter Eiskühlung aufgefangen. Die Gerinnung wird durch Zugabe von EDTA (Endkonzentration 10 mM) verhindert. Nach dem Zentrifugieren (Rotor HS 4 (Sorvall), 3 500 Upm, 0-4°C, 15 min; wiederholen, falls erforderlich) wird das Plasma vorsichtig abpipettiert und in geeigneten Portionen bei -30°C eingefroren. Für den Test werden nur Plasmen mit ausreichend hoher Reninaktivität verwendet. Plasmen mit niedriger Reninaktivität werden durch eine Kältebehandlung (-4°C, 3 Tage) aktiviert (Prorenin → Renin).
Angiotensin I wird mit dem Renin-Maia®-Kit (Serono Diagnostics S.A., Coinsins, Schweiz) bestimmt. Die Inkubation des Plasmas wird nach der dort angegebenen Anleitung durchgeführt: Inkubationsansatz: 1000 µl Plasma (bei 0-4°C aufgetaut) 100 µl Phosphatpuffer (pH 7,4) Zusatz von 10⁻⁴ M Ramiprilat) 10 µl PMSF-Lösung 10 µl 0,1 % Genapol PFIC 12 µl DMSO bzw. Testpräparat
Die Testpräparate werden i.a. 10⁻² M in 100 % Dimethylsulfoxid (DMSO) gelöst und mit DMSO entsprechend verdünnt; der Inkubationsansatz enthält max. 1 % DMSO.
Die Ansätze werden in Eis gemischt und für 1 Stunde zur Inkubation in ein Wasserbad (37°C) gestellt. Aus einem zusätzlichen Ansatz ohne Inhibitor werden ohne weitere Inkubation insgesamt 6 Proben (jeweils 100 µl) zur Bestimmung des Ausgangs-Angiotensin I-Gehaltes des verwendeten Plasmas entnommen.
Die Konzentrationen der Testpräparate werden so gewählt, daß etwa der Bereich von 10-90 % Enzymhemmung abgedeckt ist (mindestens fünf Konzentrationen). Am Ende der Inkubationszeit werden aus jedem Ansatz drei 100 µl-Proben in vorgekühlten Eppendorf-Gefäßen auf Trockeneis eingefroren und bei ca. -25°C für die Angiotensin I-Bestimmung aufbewahrt (Mittelwert aus drei Einzelproben).
Es wird exakt der Gebrauchsanweisung des RIA-Kits (Renin-Maia®-Kit, Serono Diagnostics S.A., Coinsins, Schweiz) befolgt.
Die Eichkurve umfaßt den Bereich von 0,2 bis 25,0 ng Angiotensin I pro ml. Der Basis-Angiotensin I-Gehalt des Plasmas wird von allen Meßwerten abgezogen. Die Plasma-Renin-Aktivität (PRA) wird als ng Ang I/ml x Stunde angegeben. PRA-Werte in Gegenwart der Testsubstanzen werden auf einen Ansatz ohne Inhibitor (= 100 %) bezogen und als % Restaktivität angegeben. Aus der Auftragung von % Restaktivität gegen die Konzentration (M) des Testpräparates (logarithmische Skala) wird der IC₅₀-Wert abgelesen.

SMILES | IC50
CCC[C@H](NC(=O)[C@H](Cc1ccccc1)NC(=O)NC(C)C)C(=O)N[C@@H](CC1CCCCC1)[C@H](O)CCCc1ccccn1 [Beispiel 12, 1-Cyclohexyl-6-(2-pyridyl)-2S-(N-(isopropylaminocarbonyl-Phe-Nva)-amino)-3R-hexanol] | 5500 nM
CCNC(=O)N[C@@H](Cc1ccccc1)C(=O)N[C@@H](Cc1c[nH]cn1)C(=O)N[C@@H](CC1CCCCC1)[C@@H](O)CCCc1ccccn1 [Beispiel 1, 1-Cyclohexyl-6-(2-pyridyl)-2S-(N-(ethylaminocarbonyl-Phe-His)-amino)-3S-hexanol] | 2000 nM
CC(C)(C)NC(=O)N[C@@H](Cc1ccccc1)C(=O)N[C@@H](Cc1c[nH]cn1)C(=O)N[C@@H](CC1CCCCC1)[C@@H](O)CCCc1ccccn1 [Beispiel 5] | 1000 nM
CCC[C@H](NC(=O)[C@H](Cc1ccccc1)NC(=O)NCC(C)(C)C)C(=O)N[C@@H](CC1CCCCC1)[C@@H](O)CCCc1ccccn1 [Beispiel 3, 1-Cyclohexyl-6-(2-pyridyl)-2S-(N-(2,2-dimethylpropylaminocarbonyl-Phe-Nva)-amino)-3S-hexanol] | 900 nM
CCC[C@H](NC(=O)[C@H](Cc1ccccc1)NC(=O)NCC(C)(C)N)C(=O)N[C@@H](CC1CCCCC1)[C@@H](O)CCCc1ccccn1 [Beispiel 13, 1-Cyclohexyl-6-(2-pyridyl)-2S-(N-(2-amino-2-methylpropylaminocarbonyl-Phe-Nva)-amino)-3S-hexanol] | 340 nM
CCC[C@H](NC(=O)[C@H](Cc1ccccc1)NC(=O)NC(C)(C)C(=O)O)C(=O)N[C@@H](CC1CCCCC1)[C@@H](O)CCCc1ccccn1 [Beispiel 29, 1-Cyclohexyl-6-(2-pyridyl)-2S-[N-[(1-carboxy-1-methylethylaminocarbonyl)-Phe-Nva]-amino]-3S-hexanol] | 650 nM
CCC[C@H](NC(=O)[C@H](Cc1ccccc1)NC(=O)NC(C)C)C(=O)N[C@@H](CC1CCCCC1)[C@@H](O)CCCc1ccccn1 [Beispiel 2, 1-Cyclohexyl-6-(2-pyridyl)-2S-(N-(isopropylaminocarbonyl-Phe-Nva)-amino)-3S-hexanol] | 620 nM
CCC[C@H](NC(=O)[C@H](Cc1ccc(OC)cc1)NC(=O)NC(C)(C)C)C(=O)N[C@@H](CC1CCCCC1)[C@@H](O)CCCc1ccccn1 [Beispiel 8] | > 10000 nM
CCC[C@H](NC(=O)[C@H](Cc1ccccc1)NC(=O)NC(C)(C)C)C(=O)N[C@@H](CC1CCCCC1)[C@@H](O)CCCc1ccccn1 [Beispiel 6, 1-Cyclohexyl-6-(2-pyridyl)-2S-(N-(tert.butylaminocarbonyl-Phe-Nva)-amino)-3S-hexanol] | 400 nM
CC(C)(C)NC(=O)N[C@@H](Cc1ccccc1)C(=O)N[C@@H](CC(N)=O)C(=O)N[C@@H](CC1CCCCC1)[C@@H](O)CCCc1ccccn1 [Beispiel 14] | 8000 nM
CC(C)(C)NC(=O)N[C@@H](Cc1ccccc1)C(=O)N[C@@H](Cc1c[nH]cn1)C(=O)N[C@@H](CC1CCCCC1)[C@H](O)CCCc1ccccn1 [Beispiel 10, 1-Cyclohexyl-6-(2-pyridyl)-2S-(N-(tert.butylaminocarbonyl-Phe-His)-amino)-3R-hexanol] | > 1000 nM
CCNC(=O)N[C@@H](Cc1ccccc1)C(=O)N[C@@H](Cc1c[nH]cn1)C(=O)N[C@@H](CC1CCCCC1)[C@H](O)CCCc1ccccn1 [Beispiel 11, 1-Cyclohexyl-6-(2-pyridyl)-2S-(N-(ethylaminocarbonyl-Phe-His)-amino)-3R-hexanol] | 900 nM
CCC[C@H](NC(=O)[C@H](Cc1ccccc1)NC(=O)NCC)C(=O)N[C@@H](CC1CCCCC1)[C@@H](O)CCCc1ccccn1 [Beispiel 4, 1-Cyclohexyl-6-(2-pyridyl)-2S-(N-(ethylaminocarbonyl-Phe-Nva)-amino)-3S-hexanol] | 380 nM
CCC[C@H](NC(=O)[C@H](Cc1cccs1)NC(=O)NC(C)(C)C)C(=O)N[C@@H](CC1CCCCC1)[C@@H](O)CCCc1ccccn1 [Beispiel 7, 1-Cyclohexyl-6-(2-pyridyl)-2S-(N-(tert.butylaminocarbonyl-Thi-Nva)-amino)-3S-hexanol] | 260 nM
CCC[C@H](NC(=O)[C@H](Cc1ccccc1)NC(=O)NC(C)(C)C)C(=O)N[C@@H](CC1CCCCC1)[C@H](O)CCCc1ccccn1 [Beispiel 9, 1-Cyclohexyl-6-(2-pyridyl)-2S-(N-(tert.butylaminocarbonyl-Phe-Nva)-amino)-3R-hexanol] | 6500 nM
